Laboratory results from publication PMC12152189, “Structure of a stripped-down and tuned-up far-red phycobilisome” (Communications Biology, 2025).

Legend:
Assay in all cases: cryo-EM structure, […] Å
Type in all cases: binding
ApcF2 (in FR-APC) = biological target: T1, ApcF2 (in FR-APC) (Chroococcidiopsis thermalis, UniProt K9TY40); settings: non-covalent (no Cys linkage); ZZZ,ssa; Arg77 and Arg84 contact propionates; pH 6.5
T1 construct: gene Chro_1766; native purification from far-red-grown cells; intact bicylindrical FR-APC; heterodimer with ApcE2; with Far-red phycobilisome core-membrane linker protein ApcE2 (phycobiliprotein ApcE)
T1 sequence (K9TY40 1-169): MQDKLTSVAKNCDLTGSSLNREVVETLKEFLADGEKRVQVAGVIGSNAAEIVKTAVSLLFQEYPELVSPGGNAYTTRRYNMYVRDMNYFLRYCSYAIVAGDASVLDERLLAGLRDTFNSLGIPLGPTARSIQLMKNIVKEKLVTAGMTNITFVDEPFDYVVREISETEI
T1 sequence (K9TUP3 1-780 partner): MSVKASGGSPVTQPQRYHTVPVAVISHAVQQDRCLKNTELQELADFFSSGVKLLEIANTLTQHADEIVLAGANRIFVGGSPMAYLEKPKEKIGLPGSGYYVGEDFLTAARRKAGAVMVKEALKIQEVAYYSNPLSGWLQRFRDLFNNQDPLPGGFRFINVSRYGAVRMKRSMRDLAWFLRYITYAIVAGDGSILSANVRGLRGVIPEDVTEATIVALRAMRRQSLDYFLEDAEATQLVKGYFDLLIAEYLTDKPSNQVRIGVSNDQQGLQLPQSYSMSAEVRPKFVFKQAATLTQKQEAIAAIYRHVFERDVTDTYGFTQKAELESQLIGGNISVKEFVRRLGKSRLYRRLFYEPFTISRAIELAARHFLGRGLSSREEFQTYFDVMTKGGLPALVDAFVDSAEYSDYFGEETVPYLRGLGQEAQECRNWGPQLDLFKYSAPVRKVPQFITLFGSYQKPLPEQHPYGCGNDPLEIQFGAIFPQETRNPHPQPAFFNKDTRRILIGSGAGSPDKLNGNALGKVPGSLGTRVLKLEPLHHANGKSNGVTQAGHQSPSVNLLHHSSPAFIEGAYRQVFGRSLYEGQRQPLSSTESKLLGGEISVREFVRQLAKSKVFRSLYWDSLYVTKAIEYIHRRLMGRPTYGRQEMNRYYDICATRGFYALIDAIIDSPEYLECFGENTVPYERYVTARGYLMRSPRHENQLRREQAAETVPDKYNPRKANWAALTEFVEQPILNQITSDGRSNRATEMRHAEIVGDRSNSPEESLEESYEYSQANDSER

ApcB2 (in FR-APC) = biological target: T2, ApcB2 (in FR-APC) (Chroococcidiopsis thermalis, UniProt K9TVG8); settings: covalent; several sites, proximal (with ApcC) and distal (without ApcC); pH 6.5
T2 construct: gene Chro_1033; native purification from far-red-grown cells; intact bicylindrical FR-APC; ApcC contacts the proximal ApcB2 bilin only; with Far-red allophycocyanin alpha subunit ApcD5
T2 sequence (K9TVG8 1-161): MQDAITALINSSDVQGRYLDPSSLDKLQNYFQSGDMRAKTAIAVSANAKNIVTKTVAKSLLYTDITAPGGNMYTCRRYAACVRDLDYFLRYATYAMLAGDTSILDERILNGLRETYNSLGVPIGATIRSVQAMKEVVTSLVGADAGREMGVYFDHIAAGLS
T2 sequence (K9U510 1-67 partner): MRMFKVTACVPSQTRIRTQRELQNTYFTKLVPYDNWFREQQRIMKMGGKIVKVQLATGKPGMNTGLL

ApcE2 (in FR-APC) = biological target: T3, ApcE2 (in FR-APC) (Chroococcidiopsis thermalis, UniProt K9TUP3); settings: non-covalent (no Cys linkage); ZZZ,ssa; ApcF2 Thr76 H-bonds ring D; pH 6.5
T3 construct: gene Chro_1035; native purification from far-red-grown cells; intact bicylindrical FR-APC; ApcE2 in second (alpha-beta)3 trimer
T3 sequence (K9TUP3 1-780): T1 sequence (K9TUP3 1-780 partner)
T3 sequence (K9TY40 1-169 partner): T1 sequence (K9TY40 1-169)

C/C=C1/C(=C/c2[nH]c(/C=C3N=C(/C=C4\NC(=O)C(CC)=C4C)C(C)=C\3CCC(=O)O)c(CCC(=O)O)c2C)NC(=O)[C@@H]1C [phycocyanobilin]
cryo-EM structure, 2.51 Å (ApcF2 (in FR-APC)): in ApcF2 the pigment is in ZZZ,ssa conformation | cryo-EM structure, 2.51 Å (ApcB2 (in FR-APC)): ApcB2 is represented in green while phycocyanobilin is represented in blue | cryo-EM structure, 2.51 Å (ApcE2 (in FR-APC)): the bilin pigments in ApcE2 and ApcF2 are non-covalently bound
